Measured values published in ChEMBL document CHEMBL1146672, “Discovery and SAR development of 2-(phenylamino) imidazolines as prostacyclin receptor antagonists [corrected]” (Bioorg Med Chem Lett, 2004).

The molecules below were run on Rattus norvegicus (assay: Effective dose was determined against carrageenan-induced paw hyperalgesia in the rat on peroral administration). Conditions: po.
Type: functional

SMILES	ED50
CC(C)Oc1ccc(Cc2ccc(NC3=NCCN3)cc2)cc1	18 mg/kg

The molecules below were run on Rattus norvegicus (assay: Effective dose was determined for analgesic activity in rat on i.p. administration using acetic acid induced writhing assay). Conditions: ip.
Type: functional

SMILES	ED50
CC(C)Oc1ccc(Cc2ccc(NC3=NCCN3)cc2)cc1	4 mg/kg

The molecules below were run on SH-SY5Y (assay: Compound was tested for antagonism of carbaprostacyclin-stimulated cAMP accumulation in human SH-SY5Y neuroblastoma cells). Conditions: not given.
Type: functional

SMILES	pKB
c1cc(NC2=NCCN2)ccc1Cc1ccc(OCC2CCOCC2)cc1	8.5
CCCCCCOc1ccc(Cc2ccc(NC3=NCCN3)cc2)cc1	8.2
c1ccc(COc2ccc(Cc3ccc(NC4=NCCN4)cc3)cc2)cc1	7.7
c1cc(NC2=NCCN2)ccc1Cc1ccc(OC2CCCC2)cc1	8.9
c1cc(NC2=NCCN2)ccc1Cc1ccc(OC2CCCCC2)cc1	8.6
FC(F)(F)COc1ccc(Cc2ccc(NC3=NCCN3)cc2)cc1	8.7
CC(C)Oc1ccc(Cc2ccc(NC3=NCCN3)cc2)cc1	8.8
CCCOc1ccc(Cc2ccc(NC3=NCCN3)cc2)cc1	8.8
OCCOc1ccc(Cc2ccc(NC3=NCCN3)cc2)cc1	8
CC(C)COc1ccc(Cc2ccc(NC3=NCCN3)cc2)cc1	8.8
CCCCOc1ccc(Cc2ccc(NC3=NCCN3)cc2)cc1	9
COCCOc1ccc(Cc2ccc(NC3=NCCN3)cc2)cc1	8
CCOc1ccc(Cc2ccc(NC3=NCCN3)cc2)cc1	8.2
COc1ccc(Cc2ccc(NC3=NCCN3)cc2)cc1	7.7
c1cc(NC2=NCCN2)ccc1Cc1ccc(OC2CCOCC2)cc1	8.4

Each molecule was assayed on Rattus norvegicus (assay: Effective dose was determined against carrageenan-induced paw hyperalgesia in the rat on i.v. administration). Conditions: iv.
Type: functional

SMILES	ED50
CC(C)Oc1ccc(Cc2ccc(NC3=NCCN3)cc2)cc1	2.8 mg/kg
